These are literature values, as cited in patent US10058543B2, “Treatment of familial exudative vitreoretinopathy through S1PR2 inhibition” (DALHOUSIE UNIVERSITY, priority 2014, dated 2018).

In one data set the target is S1PR2 (Homo sapiens, UniProt O95136).
For a further data set, the system named is VEGF. The note with it: ocular injection, FEVR patient, one study.

“Also recorded” adds a separate entry of the source.

Sequence of S1PR2 (O95136 whole entry): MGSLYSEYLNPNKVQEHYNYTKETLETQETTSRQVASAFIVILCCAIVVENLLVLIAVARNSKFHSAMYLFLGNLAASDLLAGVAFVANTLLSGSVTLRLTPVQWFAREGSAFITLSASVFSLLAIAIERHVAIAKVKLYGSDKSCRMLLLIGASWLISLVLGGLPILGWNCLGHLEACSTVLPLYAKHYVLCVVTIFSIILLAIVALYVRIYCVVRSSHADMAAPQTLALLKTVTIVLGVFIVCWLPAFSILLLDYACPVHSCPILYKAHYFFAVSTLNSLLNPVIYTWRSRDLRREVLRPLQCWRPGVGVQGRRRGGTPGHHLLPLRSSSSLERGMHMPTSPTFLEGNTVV
Sequence of VEGF (P15692 207-311 limits assumed): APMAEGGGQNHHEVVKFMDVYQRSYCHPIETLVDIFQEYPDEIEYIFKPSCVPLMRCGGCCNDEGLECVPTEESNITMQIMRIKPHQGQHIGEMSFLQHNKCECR

Take `Cc1nn(C)c2nc(NNC(=O)Nc3cc(Cl)nc(Cl)c3)cc(C(C)C)c12` [JTE-103, 1-(2,6-dichloro-4-pyridyl)-3-[(4-isopropyl-1,3-dimethyl-pyrazolo[3,4-n]pyridin-6-yl)amino]urea]: the “specificity for S1PR2 versus other S1PRs” value on S1PR2 is 10 fold. For the same compound, the affinity entry at S1PR2 (S1PR2, stated in words) is recorded as “uM affinity; also recorded: low affinity”. Besides, the “specificity for S1PR2” value on S1PR2 (stated in words) is “some specificity for S1PR2”.
On to “bevacizumab: monoclonal antibody that inhibits VEGF function originally developed to treat cancers”, for which, in the data set with VEGF, the “retinal hemorrhage and neovascularization” value was “improvement of retinal hemorrhage and neovascularization”.
